Target: T1, PAK6 (Homo sapiens, UniProt Q9NQU5)
T1 construct: purchased Thermo Fisher Scientific (Life Technologies) SelectScreen
Experiment: SelectScreen Z'LYTE
Format: biochemical
Summary of the method: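 NU5455 was profiled across the SelectScreen Broad panel of kinase activity and binding assays. Z'LYTE reactions such as CSF1R ran at apparent Km ATP, while the Adapta CAMK1 assay used ATP listed as 10. Values are given as percent.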

T1 sequence (Q9NQU5 whole entry): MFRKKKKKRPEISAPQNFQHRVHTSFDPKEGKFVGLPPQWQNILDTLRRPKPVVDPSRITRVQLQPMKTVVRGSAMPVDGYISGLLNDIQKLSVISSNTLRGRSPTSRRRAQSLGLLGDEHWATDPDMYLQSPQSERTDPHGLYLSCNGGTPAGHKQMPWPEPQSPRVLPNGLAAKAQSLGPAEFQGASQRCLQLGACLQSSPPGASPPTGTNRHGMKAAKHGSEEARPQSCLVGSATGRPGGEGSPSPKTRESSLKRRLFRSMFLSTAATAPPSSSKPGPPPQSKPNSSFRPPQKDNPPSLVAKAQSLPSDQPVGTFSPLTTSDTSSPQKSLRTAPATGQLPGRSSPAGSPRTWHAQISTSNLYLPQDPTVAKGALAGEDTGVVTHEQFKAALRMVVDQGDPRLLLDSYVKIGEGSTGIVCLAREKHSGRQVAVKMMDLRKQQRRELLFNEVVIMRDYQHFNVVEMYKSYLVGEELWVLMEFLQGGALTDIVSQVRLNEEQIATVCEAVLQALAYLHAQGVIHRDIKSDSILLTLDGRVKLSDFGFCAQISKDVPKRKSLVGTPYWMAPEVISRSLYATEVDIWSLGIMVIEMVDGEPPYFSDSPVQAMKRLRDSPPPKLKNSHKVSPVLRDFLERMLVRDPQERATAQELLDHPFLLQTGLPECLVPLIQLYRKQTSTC

Structure (SMILES): CN(C(=O)CN1CCOCC1)c1ccc2sc3c(-c4cccc5c(=O)cc(N6CC7CCC(C6)O7)oc45)cccc3c2c1 [NU5455]
- inhibition at 1 µM: 3%

Reference: paper PMC6934184, “Selective DNA-PKcs inhibition extends the therapeutic index of localized radiotherapy and chemotherapy” (The Journal of Clinical Investigation, 2019)
